We go through 19 compounds from patent US20250282749A1 (Tango Therapeutics, Inc., priority 2022, published 2025).

Bounds are passed on as bounds.

Type in all cases: cell-based
In experiment [1] the test system is PRMT5 (SDMA) in HAP1 MTAP-intact cell line. The experiment can be described thus: SDMA in-cell western assay, HAP1 MTAP-intact cell line. The settings on record: Homo sapiens, HAP1 MTAP-intact cell line (endogenous MTAP), read-out: Hap 1 MTAP intact IC50. From the text: (§1) HAP1 MTAP-intact is a cell line in which endogenous levels of MTAP are expressed, and HAP1 MTAP-deleted is an MTAP-null cell line.

Experiment [2] concerns PRMT5 (SDMA) in HAP1 MTAP-deleted cell line. The experiment can be described thus: SDMA in-cell western assay, HAP1 MTAP-deleted cell line. Particulars: for IC50 / IC90: Homo sapiens, SDMA in-cell western, HAP1 MTAP-deleted (MTAP-null) cell line; for Hap1 MTAP intact/deleted ratio: ratio of SDMA in-cell western IC50 in HAP1 MTAP-intact to IC50 in HAP1 MTAP-deleted cell line.
Text: as §1

Experiment [3] concerns HAP1 MTAP-deleted cell line. The experiment can be described thus: viability assay for the MTAP-deleted cell line. Particulars: Homo sapiens.

Regarding `Cc1cc(NC(=O)C(=O)N2C[C@@H](C)N(C(=O)C(C)(C)C)C[C@@H]2c2cccc(N3CCN(C)CC3)c2)cnc1N` [Compound 7, N-(6-amino-5-methylpyridin-3-yl)-2-((2S,5R)-5-methyl-2-(3-(4-methylpiperazin-1-yl)phenyl)-4-pivaloylpiperazin-1-yl)-2-oxoacetamide], the IC50 (commonly the concentration that gives 50% inhibition) in experiment [1] was less than 5 nM. In experiment [2], the IC50 is less than 5 nM; the IC90 (in general, the point of the concentration-response curve where the effect stands at 90%) was less than 75 nM; the “Hap1 MTAP intact/deleted ratio” value is listed as “C (an IC50 ratio of less than 15 fold)”. The IC50 in experiment [3] was less than 100 nM.
`C[C@@H]1CN(C(=O)C(=O)Nc2cnc(N)c(C3CC3)c2)[C@@H](c2ccc(F)cc2)CN1C(=O)C1(C)CC1` [Compound 8, N-(6-amino-5-cyclopropylpyridin-3-yl)-2-((2S,5R)-2-(4-fluorophenyl)-5-methyl-4-(1-methylcyclopropanecarbonyl)piperazin-1-yl)-2-oxoacetamide]: the IC50 in experiment [1] fell in the range of 5 to 50 nM. For the same compound, in experiment [2], the IC50 was less than 5 nM, the IC90 was less than 75 nM and the “Hap1 MTAP intact/deleted ratio” value was “C (an IC50 ratio of less than 15 fold)”. Besides, in experiment [3], the 50% inhibitory concentration (IC50) was less than 100 nM.
Take `C[C@@H]1CN(C(=O)C(=O)Nc2cncc3cn[nH]c23)[C@@H](c2cccc(Cl)c2)CN1C(=O)C(C)(C)C` [Compound 9, 2-((2S,5R)-2-(3-chlorophenyl)-5-methyl-4-pivaloylpiperazin-1-yl)-2-oxo-N-(1H-pyrazolo[4,3-c]pyridin-7-yl)acetamide]: the IC50 in experiment [1] is more than 50 nM. For the same compound, in experiment [2], the IC50 was 5 to 50 nM, the IC90 is more than 125 nM and the “Hap1 MTAP intact/deleted ratio” value is “B (an IC50 ratio greater than or equal to 15 fold but lower than 30 fold)”. The compound also registered a 50% inhibitory concentration (IC50) in experiment [3] of 100 to 1000 nM.
As to `COc1ncc(NC(=O)C(=O)N2C[C@@H](C)N(C(=O)C(C)C)C[C@@H]2c2cccc(N3CCN(C)CC3)c2)cc1C(N)=O` [Compound 10, 5-(2-((2S,5R)-4-isobutyryl-5-methyl-2-(3-(4-methylpiperazin-1-yl)phenyl)piperazin-1-yl)-2-oxoacetamido)-2-methoxynicotinamide], the half-maximal inhibitory concentration (IC50) in experiment [1] was more than 50 nM; in experiment [2], 5 to 50 nM; in experiment [3] it was 100 to 1000 nM. Also, in experiment [2], the concentration for an effect of 90% (IC90) is more than 125 nM. Further, the “Hap1 MTAP intact/deleted ratio” value in experiment [2] is recorded as “C (an IC50 ratio of less than 15 fold)”.
For `Cc1cc(NC(=O)C(=O)N2C[C@@H](C)N(C(=O)C(C)C)C[C@@H]2c2ccc(N3CCN(C)CC3)cc2)cnc1N` [Compound 11, N-(6-amino-5-methylpyridin-3-yl)-2-((2S,5R)-4-isobutyryl-5-methyl-2-(4-(4-methylpiperazin-1-yl)phenyl)piperazin-1-yl)-2-oxoacetamide] the same measures were 5 to 50 nM, less than 5 nM, less than 100 nM, less than 75 nM and “C (an IC50 ratio of less than 15 fold)”.
For `COc1ncc(NC(=O)C(=O)N2C[C@@H](C)N(C(=O)C(C)C)C[C@@H]2c2ccc(F)c(Cl)c2)cc1C(N)=O` [Compound 12, 5-(2-((2S,5R)-2-(3-chloro-4-fluorophenyl)-4-isobutyryl-5-methylpiperazin-1-yl)-2-oxoacetamido)-2-methoxynicotinamide] the same measures were more than 50 nM, 5 to 50 nM, 100 to 1000 nM, more than 125 nM and “A (an IC50 ratio greater than or equal to 30 fold)”.
For `Cc1cc(NC(=O)C(=O)N2C[C@@H](C)N(C(=O)C(C)(C)CN(C)C)C[C@@H]2c2ccccc2)cnc1N` [Compound 13] the same measures were more than 50 nM, 5 to 50 nM, less than 100 nM, less than 75 nM and “C (an IC50 ratio of less than 15 fold)”.
As for `C[C@@H]1CN(C(=O)C(=O)Nc2cnc(N)c(C3CC3)c2)[C@@H](c2ccc(F)c(Cl)c2)CN1C(=O)C1(C(F)(F)F)CC1` [Compound 14, N-(6-amino-5-cyclopropylpyridin-3-yl)-2-((2S,5R)-2-(3-chloro-4-fluorophenyl)-5-methyl-4-(1-(trifluoromethyl)cyclopropanecarbonyl)piperazin-1-yl)-2-oxoacetamide], the IC50 in experiment [1] was more than 50 nM; in experiment [2], less than 5 nM; in experiment [3] it was less than 100 nM. Besides, the IC90 in experiment [2] was less than 75 nM. In addition, the “Hap1 MTAP intact/deleted ratio” value in experiment [2] was “C (an IC50 ratio of less than 15 fold)”.
For `CC(C)CN1C[C@H](c2ccccc2)N(C(=O)C(=O)Nc2cnc(N)c3cn[nH]c23)C[C@H]1C` [Compound 16] the same measures were 5 to 50 nM, less than 5 nM, less than 100 nM, less than 75 nM and “A (an IC50 ratio greater than or equal to 30 fold)”.
The matching figures for `C[C@@H]1CN(C(=O)C(=O)Nc2cnc(N)c3cn[nH]c23)[C@@H](c2cccc(Cl)c2)CN1C` [Compound 18]: more than 50 nM, less than 5 nM, less than 100 nM, less than 75 nM and “A (an IC50 ratio greater than or equal to 30 fold)”.
For `Cc1cc(NC(=O)C(=O)N2C[C@@H](C)N(C(=O)OC(C)(C)C)C[C@@H]2c2ccc(F)c(F)c2)cnc1N` [Compound 21] the same measures were more than 50 nM, 5 to 50 nM, 100 to 1000 nM, 75 to 125 nM and “C (an IC50 ratio of less than 15 fold)”.
As for `C[C@@H]1CN(C(=O)C(=O)Nc2cnc(N)c(C3CC3)c2)[C@@H](c2ccc(F)c(F)c2)CN1C(=O)C1(C(F)(F)F)CC1` [Compound 22], the 50% inhibitory concentration (IC50) in experiment [1] was more than 50 nM. Moreover, in experiment [2], the half-maximal inhibitory concentration (IC50) was 5 to 50 nM, the IC90 was in the range of 75 to 125 nM and the “Hap1 MTAP intact/deleted ratio” value is recorded as “B (an IC50 ratio greater than or equal to 15 fold but lower than 30 fold)”. This compound gave an IC50 in experiment [3] of less than 100 nM.
For `CC(C)C(=O)N1C[C@H](c2ccc(F)c(Cl)c2)N(C(=O)C(=O)Nc2cnc(N)c(C3CC3)c2)C[C@H]1C` [Compound 24, N-(6-amino-5-cyclopropylpyridin-3-yl)-2-((2S,5R)-2-(3-chloro-4-fluorophenyl)-4-isobutyryl-5-methylpiperazin-1-yl)-2-oxoacetamide] the same measures were more than 50 nM, less than 5 nM, less than 75 nM, “B (an IC50 ratio greater than or equal to 15 fold but lower than 30 fold)” and less than 100 nM.
For `Cc1cc(NC(=O)C(=O)N2C[C@@H](C)N(C(=O)OC(C)(C)C)C[C@@H]2c2ccccc2)cnc1N` [Compound 25] the same measures were 5 to 50 nM, less than 5 nM, less than 75 nM, “C (an IC50 ratio of less than 15 fold)” and less than 100 nM.
On to `Cc1cc(NC(=O)C(=O)N2C[C@@H](C)N(C(=O)C(C)(C)N(C)C)C[C@@H]2c2ccccc2)cnc1N` [Compound 28], for which the IC50 in experiment [1] is more than 50 nM. Moreover, in experiment [2], the IC50 is 5 to 50 nM, the IC90 lay in the range of 75 to 125 nM and the “Hap1 MTAP intact/deleted ratio” value is recorded as “B (an IC50 ratio greater than or equal to 15 fold but lower than 30 fold)”. Further, in experiment [3], the IC50 is less than 100 nM.
As to `Cc1cc(NC(=O)C(=O)N2C[C@@H](C)N(C(=O)C3(C(F)(F)F)CC3)C[C@@H]2c2ccc(F)c(Cl)c2)cnc1N` [Compound 29, N-(6-amino-5-methylpyridin-3-yl)-2-((2S,5R)-2-(3-chloro-4-fluorophenyl)-5-methyl-4-(1-(trifluoromethyl)cyclopropanecarbonyl)piperazin-1-yl)-2-oxoacetamide], the figures for the IC50 in experiment [1], in experiment [2] and in experiment [3] were more than 50 nM, less than 5 nM and less than 100 nM, respectively. In experiment [2], the IC90 was less than 75 nM. The “Hap1 MTAP intact/deleted ratio” value in experiment [2] is given as “B (an IC50 ratio greater than or equal to 15 fold but lower than 30 fold)”.
For `Cc1cccc([C@H]2CN(C(=O)C3(C(F)(F)F)CC3)[C@H](C)CN2C(=O)C(=O)Nc2cnc(N)c(C)c2)c1` [Compound 30, N-(6-amino-5-methylpyridin-3-yl)-2-((2S,5R)-5-methyl-2-(m-tolyl)-4-(1-(trifluoromethyl)cyclopropanecarbonyl)piperazin-1-yl)-2-oxoacetamide] the same measures were more than 50 nM, 5 to 50 nM, less than 100 nM, 75 to 125 nM and “C (an IC50 ratio of less than 15 fold)”.
The matching figures for `Cc1cc(NC(=O)C(=O)N2C[C@@H](C)N(C(=O)C3(C)CC3)C[C@@H]2c2ccsc2)cnc1N` [Compound 31, N-(6-amino-5-methyl-3-pyridyl)-2-[(2S,5R)-5-methyl-4-(1-methylcyclopropanecarbonyl)-2-(3-thienyl)piperazin-1-yl]-2-oxo-acetamide]: more than 50 nM, less than 5 nM, less than 100 nM, more than 125 nM and “B (an IC50 ratio greater than or equal to 15 fold but lower than 30 fold)”.
Consider `CCc1cc(NC(=O)C(=O)N2C[C@@H](C)N(CC(C)C)C[C@@H]2c2ccccc2)cnc1N` [Compound 32, N-(6-amino-5-ethylpyridin-3-yl)-2-((2S,5R)-4-isobutyl-5-methyl-2-phenylpiperazin-1-yl)-2-oxoacetamide], for which the IC50 in experiment [1] was more than 50 nM. In experiment [2], the IC50 lay within 5 to 50 nM, the concentration for an effect of 90% (IC90) is more than 125 nM and the “Hap1 MTAP intact/deleted ratio” value was “A (an IC50 ratio greater than or equal to 30 fold)”. The compound further gave an IC50 in experiment [3] of less than 100 nM.
